Assay: in vitro
Conditions: human, hek293t cells
Procedure: Mammalian cytotoxicity measurement was performed using Cell Titer-Glo 2.0 Cell Viability Assay (Promega, G9243) according to the manufacturer protocol. In brief, mammalian cells were seeded into 384-well white plates (Greiner, 781080) and incubated at 37°C for one day. Compounds from the Cys-Library were dispensed into the assay plate using epMotion 96. The plates were then incubated at 37°C for two days. An equal volume of Cell Titer-Glo 2.0 reagent was added into each well of the assay plate using epMotion 96 and incubated at 22°C for 10 min, followed by luminescence measurement using a Cytation 5 plate reader (BioTek).

Compared with `C=CC(=O)N1CCCC(CNS(=O)(=O)C2CC2)C1` (centres unmarked) [3-G21, N-{[1-(prop-2-enoyl)piperidin-3-yl]methyl}cyclopropanesulfonamide], `C=CC(=O)N1CCS(=O)(=O)N2CCCC12` (centres unmarked) [3-H18, 1-(prop-2-enoyl)-hexahydro-1H-4lambda6-pyrrolo[1,2-b][1,2,4]thiadiazine-4,4-dione] is higher in viability at 48 h, 25 µM: 50.6% for the first, 93.3% for the second.

Going from `C=CC(=O)NCCc1nnc(C)s1` [3-G22, N-[2-(5-methyl-1,3,4-thiadiazol-2-yl)ethyl]prop-2-enamide] to `C=CC(=O)NCc1noc(-c2cccs2)n1` [3-H15, N-{[5-(thiophen-2-yl)-1,2,4-oxadiazol-3-yl]methyl}prop-2-enamide], the viability at 48 h, 25 µM rises from 78.3% to 93.9%.

Compared with `C=CC(=O)N1CCC(C(=O)NCc2cc(C)c[nH]c2=O)CC1` [3-H03, N-[(5-methyl-2-oxo-1,2-dihydropyridin-3-yl)methyl]-1-(prop-2-enoyl)piperidine-4-carboxamide], `C=CC(=O)N1CCC(C(=O)NCc2ncccc2OC)CC1` [3-H05, N-[(3-methoxypyridin-2-yl)methyl]-1-(prop-2-enoyl)piperidine-4-carboxamide] is lower in viability at 48 h, 25 µM: 81.3% for the first, 73.5% for the second.

Going from `C=CC(=O)N1CCC(C(=O)OCC)(S(C)(=O)=O)CC1` [3-H04, ethyl 4-methanesulfonyl-1-(prop-2-enoyl)piperidine-4-carboxylate] to `C=CC(=O)N1CCC(C(=O)NC2(CO)CCSCC2)CC1` [3-H07, N-[4-(hydroxymethyl)thian-4-yl]-1-(prop-2-enoyl)piperidine-4-carboxamide], the viability at 48 h, 25 µM falls from 93.3% to 67.5%.

Going from `C=CC(=O)Nc1ccc(N(C)S(=O)(=O)CC)cc1` [3-H06, N-[4-(N-methylethanesulfonamido)phenyl]prop-2-enamide] to `C=CC(=O)Nc1ccccc1C(=O)N(C)C(C)C` [3-H17, N-methyl-2-(prop-2-enamido)-N-(propan-2-yl)benzamide], the viability at 48 h, 25 µM falls from 87.8% to 66.9%.

First: C=CC(=O)N(C)CC(=O)Nc1ccc(N2C[C@@H](C)O[C@@H](C)C2)cc1 [3-H08, N-[({4-[(2R,6S)-2,6-dimethylmorpholin-4-yl]phenyl}carbamoyl)methyl]-N-methylprop-2-enamide]
Second: C=CC(=O)N(C)CC(=O)NC(C)c1ncc(C)s1 (centres unmarked) [3-I14, N-methyl-N-({[1-(5-methyl-1,3-thiazol-2-yl)ethyl]carbamoyl}methyl)prop-2-enamide]
The viability at 48 h, 25 µM of the first is higher: 94.9% for the first, 69.4% for the second.

Going from `C=CC(=O)N1CCOC(c2nccs2)C1` (centres unmarked) [3-H09, 1-[2-(1,3-thiazol-2-yl)morpholin-4-yl]prop-2-en-1-one] to `C=CC(=O)N1CCN(Cc2ncon2)CC1` [3-I16, 1-{4-[(1,2,4-oxadiazol-3-yl)methyl]piperazin-1-yl}prop-2-en-1-one], the viability at 48 h, 25 µM rises from 69.4% to 106%.

First: C=CC(=O)Nc1ccccc1-n1nccn1 [3-H10, N-[2-(2H-1,2,3-triazol-2-yl)phenyl]prop-2-enamide]
Second: C=CC(=O)Nc1cnn(-c2ccccc2)c1C(F)F [3-I03, N-[5-(difluoromethyl)-1-phenyl-1H-pyrazol-4-yl]prop-2-enamide]
The viability at 48 h, 25 µM of the first is higher: 73.2% for the first, 41.7% for the second.

Going from `C=CC(=O)NCc1ncnn1-c1ccccc1` [3-H11, N-[(1-phenyl-1H-1,2,4-triazol-5-yl)methyl]prop-2-enamide] to `C=CC(=O)NCc1ccc(-n2ccc(C)n2)nc1` [3-H16, N-{[6-(3-methyl-1H-pyrazol-1-yl)pyridin-3-yl]methyl}prop-2-enamide], the viability at 48 h, 25 µM rises from 63.1% to 99.7%.

Going from `C=CC(=O)N1CCC(C(=O)NC2(Cc3ccccc3)CCCC2)CC1` [3-H12, N-(1-benzylcyclopentyl)-1-(prop-2-enoyl)piperidine-4-carboxamide] to `C=CC(=O)N1CCC(C(=O)Nc2nc3cc(F)ccc3n2CC)CC1` [3-I13, N-(1-ethyl-5-fluoro-1H-1,3-benzodiazol-2-yl)-1-(prop-2-enoyl)piperidine-4-carboxamide], the viability at 48 h, 25 µM falls from 83.4% to 62.5%.

Compared with `C=CC(=O)NC1(c2nc(C3CC3)cc(=O)[nH]2)CCCCC1` [3-H13, N-[1-(4-cyclopropyl-6-oxo-1,6-dihydropyrimidin-2-yl)cyclohexyl]prop-2-enamide], `C=CC(=O)N1CCOC2(CCCC2)C1` [3-I11, 1-{6-oxa-9-azaspiro[4.5]decan-9-yl}prop-2-en-1-one] is lower in viability at 48 h, 25 µM: 68.3% for the first, 44.3% for the second.

First: C=CC(=O)Nc1ccc2occc2c1 [3-H14, N-(1-benzofuran-5-yl)prop-2-enamide]
Second: C=CC(=O)N(C)Cc1cc2ccccc2o1 [3-I09, N-[(1-benzofuran-2-yl)methyl]-N-methylprop-2-enamide]
The viability at 48 h, 25 µM of the first is higher: 99.9% for the first, 47.1% for the second.

Going from `C=CC(=O)NCCCN1CCCS1(=O)=O` [3-H19, N-[3-(1,1-dioxo-1lambda6,2-thiazolidin-2-yl)propyl]prop-2-enamide] to `C=CC(=O)N(CC)CC(=O)N1CCCC(N2CCCS2(=O)=O)C1` (centres unmarked) [3-I08, N-{2-[3-(1,1-dioxo-1lambda6,2-thiazolidin-2-yl)piperidin-1-yl]-2-oxoethyl}-N-ethylprop-2-enamide], the viability at 48 h, 25 µM rises from 88.4% to 91.2%.

First: C=CC(=O)NC(c1ccc(F)cc1)C1CC1 (centres unmarked) [3-H20, N-[cyclopropyl(4-fluorophenyl)methyl]prop-2-enamide]
Second: C=CC(=O)N1CCC(c2noc3cc(F)ccc23)CC1 [3-I07, 1-[4-(6-fluoro-1,2-benzoxazol-3-yl)piperidin-1-yl]prop-2-en-1-one]
The viability at 48 h, 25 µM of the first is higher: 89.2% for the first, 48.2% for the second.

Compared with `C=CC(=O)NCc1ccnn1C1CCCC1` [3-H21, N-[(1-cyclopentyl-1H-pyrazol-5-yl)methyl]prop-2-enamide], `C=CC(=O)NCc1ccccc1S(=O)(=O)N1CCOCC1` [3-H22, N-{[2-(morpholine-4-sulfonyl)phenyl]methyl}prop-2-enamide] is higher in viability at 48 h, 25 µM: 74.5% for the first, 89.1% for the second.

First: C=CC(=O)NCc1ccc(C(=O)N2CCNC(=O)CC2)cc1 [3-I04, N-{[4-(5-oxo-1,4-diazepane-1-carbonyl)phenyl]methyl}prop-2-enamide]
Second: C=CC(=O)NCc1ccc(C(=O)N2CCCC23CCOC3=O)cc1 (centres unmarked) [3-I06, N-[(4-{6-oxo-7-oxa-1-azaspiro[4.4]nonane-1-carbonyl}phenyl)methyl]prop-2-enamide]
The viability at 48 h, 25 µM of the first is higher: 93.2% for the first, 88.5% for the second.

First: C=CC(=O)N(CC)Cc1cccc2c1OCO2 [3-I05, N-[(1,3-dioxaindan-4-yl)methyl]-N-ethylprop-2-enamide]
Second: C=CC(=O)N1CC(OCc2ccccc2F)C1 [3-I15, 1-{3-[(2-fluorophenyl)methoxy]azetidin-1-yl}prop-2-en-1-one]
The viability at 48 h, 25 µM of the first is higher: 47.8% for the first, 40.4% for the second.

Going from `C=CC(=O)N1CCC(C(=O)NCc2nccn2C)(c2ccccc2)CC1` [3-I10, N-[(1-methyl-1H-imidazol-2-yl)methyl]-4-phenyl-1-(prop-2-enoyl)piperidine-4-carboxamide] to `C=CC(=O)N1CC[C@H](Oc2ccccc2)C1` [3-I18, 1-[(3S)-3-phenoxypyrrolidin-1-yl]prop-2-en-1-one], the viability at 48 h, 25 µM rises from 92.9% to 103%.

First: C=CC(=O)N1CC(C)OC2(CCOCC2)C1 (centres unmarked) [3-I12, 1-{2-methyl-1,9-dioxa-4-azaspiro[5.5]undecan-4-yl}prop-2-en-1-one]
Second: C=CC(=O)N1CCC(C(=O)NC2CCCc3nc(C)ncc32)CC1 (centres unmarked) [3-I17, N-(2-methyl-5,6,7,8-tetrahydroquinazolin-5-yl)-1-(prop-2-enoyl)piperidine-4-carboxamide]
The viability at 48 h, 25 µM of the first is higher: 91.6% for the first, 32% for the second.
